# Reference: patent US20230172201A1, “Use of 4-Phenylbutyric Acid and/or 3-Phenylbutyric Acid and/or 2-Phenylbutyric Acid in Preventing and Treating Cryptogamic Diseases” (Institut National de Recherche Pour L'Agriculture, …, priority 2020, published 2023)
# Tested on: Botrytis cinerea (BMM strain)
# Assay: Mycelial development in liquid medium, absorbance at 600 nm (nephelometry)
# Assay type: cell-based
# Settings: Botrytis cinerea, 96 h; 1 mM; incubation for 4 days; Example 4; read-out: degree of inhibition
structure (smiles),measurement,value
"CCC(C(=O)O)c1ccccc1 (stereo not shown) [2-PBA, 2-Phenylbutyric acid]",inhibition at 1000 µM,~70%
